row,Compound,logP
1,CC(C)(C)c1ccc(-c2nc3ncccc3[nH]2)cc1,4.82
2,Cc1ccc(-c2nc3ccccc3[nH]2)cc1,3.67
3,Clc1ccc(Cc2nc3cc(Cl)ccc3[nH]2)cc1,5.18
4,Cc1ccc(-c2nc3cc([N+](=O)[O-])ccc3[nH]2)c(C)c1,4.1
5,Clc1ccc(-c2nc3ncccc3[nH]2)cc1,2.95
6,COc1ccccc1-c1nc2ccccc2[nH]1,3.02
7,COc1ccc(Cc2nc3cc([N+](=O)[O-])ccc3[nH]2)cc1,3.48
8,Clc1ccc2[nH]c(Cc3ccc(Br)cc3)nc2c1,5.38
9,Nc1ccc(Cc2nc3cc(Cl)ccc3[nH]2)cc1,3.2
10,COc1ccc(-c2nc3cc(C)ccc3[nH]2)c(OC)c1,3.78
11,CCc1ccc(-c2nc3ncccc3[nH]2)cc1,3.42
12,Cc1ccc(Cc2nc3cc(Cl)ccc3[nH]2)cc1,5.21
13,Cc1ccc(-c2nc3ncccc3[nH]2)cc1,3.02
14,Cc1ccccc1-c1nc2cc([N+](=O)[O-])ccc2[nH]1,3.42
15,Fc1ccc(-c2nc3ncccc3[nH]2)cc1,2.52

# From the OPERA property sets (Mansouri et al. 2018)
